Assays:
Assay type in all cases: in vivo, mouse
Hamp mRNA = assay: Liver Hamp mRNA by qRT-PCR in Bmp6-/- males treated with gefitinib; conditions: 7 w.o. Bmp6-/- males
Protocol: (§1) Bmp6 null mice (Bmp^6mlRob) obtained from E. Robertson and wild-type controls on a CD1 background were sacrificed at 7, 12, or 30 weeks of age. Liver, spleen, heart, pancreas and kidney samples were dissected for RNA isolation, flash frozen in liquid nitrogen and stored at −80° C. Hamp-deficient mice were kindly provided by S. Vaulont. They were derived on a C57BL/6 background in the lab of T. Ganz. Gonadectomies and sham operations were performed under anesthesia at 4 weeks of age. Testosterone (10 mg/kg; Sigma) was suspended in corn oil and a total volume of 60 μL per mouse was injected sc everyday for a week. To investigate the role of erythropoiesis in the down-regulation of hepcidin by testosterone, Bmp6−/− females were whole-body irradiated with a sublethal dose of 60Co (6 Gy) on day 1, administered daily doses of testosterone (1 μg/g) starting on day 2, and sacrificed on day 8. To investigate the effect of EGF signaling on testosterone-induced hepcidin down-regulation, the selective EGFR inhibitor Gefitinib (Iressa) was stirred into 1% Tween 80 and administered orally daily from days −1 to 7 to Bmp6−/− males (200 mg/kg; Euromedex). Mice were housed under controlled lighting and temperature conditions, fed a chow of normal iron content (250 mg iron/kg; SAFE, Augy, France) ad libidum, and were fasted for 14 h before they were killed. Experimental protocols were approved by the Midi-Pyrenees Animal Ethics Committee.
(§2) Total RNA from mouse liver was extracted using Trizol (Invitrogen). cDNA was synthesized using MMLV-RT (Promega). The sequences of the primers for target genes and the reference gene Hprt are listed in supplemental Table 1. Quantitative PCR reactions were prepared with LightCycler 480 DNA SYBR Green I Master reaction mix (Roche Diagnostics, Mannheim, Germany) and run in duplicate on a LightCycler 480 Instrument (Roche Diagnostics).
(§3) Data were first normalized to the invariant control Hprt and, for each sample and each target gene, −ΔCt=−[Ct target gene−Ct Hprt] was calculated. Because the numerical value of Ct is inversely related to the amount of amplicon in the reaction, the higher the −ΔCt value, the greater the amount of target amplicon. Values shown are means±SEM. Target gene expression in an individual is proportional to 2^−ΔCt. However, individual expression values are usually shown on a log scale and, because log 2 (2^−ΔCt)[…], −ΔCt data rather than 2^−ΔCt data are plotted on the y-axes. An increase of 1 on the y-axis thus corresponds to a 2-fold increase in target gene expression. ΔCt data are the observed values from experimental procedures and it is recommended that ΔCt data rather 2−ΔCt data be the subject of statistical analysis (41). […]

Hepcidin (Hamp) mRNA = assay: Liver hepcidin (Hamp) mRNA by qRT-PCR after testosterone administration to ovariectomized Bmp6-/- mice
Egfr mRNA = assay: Liver Egfr mRNA by qRT-PCR after testosterone administration to gonadectomized Bmp6-/- females
Protocol: as §1, §2, §3

C-terminal phospho-Smad5 = C-terminal phospho-Smad5 immunoblot of liver extracts, gonadectomized Bmp6-/- females treated with testosterone; conditions: administration of testosterone to Bmp6-/- females
Protocol: as §1, with “Mice were housed under controlled lighting and temperature conditions, fed a chow of normal iron content (250 mg iron/kg; SAFE, Augy, France) ad libidum, and were fasted for 14 h before they were killed. Experimental protocols were approved by the Midi-Pyrenees Animal Ethics Committee.” left out
(§4) Livers were homogeneized in a FastPrep®-24 Instrument (MP Biomedicals) for 15 sec at 4 m/s. […] Liver proteins were quantified using a protein assay kit (Bio-Rad). […]

C-terminal phospho-Smad2 = C-terminal phospho-Smad2 immunoblot of liver extracts, gonadectomized Bmp6-/- females treated with testosterone; conditions: administration of testosterone to Bmp6-/- females
Protocol: as §1, with “Mice were housed under controlled lighting and temperature conditions, fed a chow of normal iron content (250 mg iron/kg; SAFE, Augy, France) ad libidum, and were fasted for 14 h before they were killed. Experimental protocols were approved by the Midi-Pyrenees Animal Ethics Committee.” left out
as §4

[1] = gefitinib 200 mg/kg orally daily for 7 days
[2] = non-irradiated 7 w.o. ovariectomized Bmp6-/- mice, testosterone propionate 10 mg/kg sc daily for 7 days
[3] = whole-body irradiated ovariectomized Bmp6-/- mice, daily testosterone days 2 to 8
[4] = gonadectomized Bmp6-/- females, testosterone for a week

SMILES	Hamp mRNA -ΔΔCt (gefitinib vs vehicule) (Hamp mRNA; [1])	Hamp mRNA mean -ΔCt (Ct Hprt - Ct Hamp) (Hamp mRNA; [1])	Hamp expression on average higher than in mice treated with vehicule (Hamp mRNA; gefitinib 200 mg/kg orally daily for 7 days, liver mRNA) [fold]	Effect on Hamp mRNA levels (in words) (Hamp mRNA; gefitinib daily for 7 days)	Effect on hepcidin expression in irradiated mice (in words) (Hepcidin (Hamp) mRNA; irradiated ovariectomized Bmp6-/- females, testosterone propionate 10 mg/kg days 2 to 8)	Hamp mRNA -ΔΔCt (testosterone vs vehicule) (Hepcidin (Hamp) mRNA; [2])	Hamp mRNA mean -ΔCt (Ct Hprt - Ct Hamp) (Hepcidin (Hamp) mRNA; [2])	Hepcidin expression repressed on average (vs vehicule) (Hepcidin (Hamp) mRNA; non-irradiated 7 w.o. ovariectomized Bmp6-/- mice, testosterone propionate 10 mg/kg sc daily for 7 days, liver mRNA) [fold]	Hepcidin expression reduced on average (vs vehicule) (Hepcidin (Hamp) mRNA; whole-body irradiated (60Co, 6 Gy) ovariectomized Bmp6-/- mice, daily testosterone days 2 to 8) [fold]	Hamp mRNA -ΔΔCt (testosterone vs vehicule) (Hepcidin (Hamp) mRNA; [3])	Hamp mRNA mean -ΔCt (Ct Hprt - Ct Hamp) (Hepcidin (Hamp) mRNA; [3])	Egfr mRNA -ΔΔCt (testosterone vs vehicule) (Egfr mRNA; [4])	Egfr mRNA mean -ΔCt (Ct Hprt - Ct Egfr) (Egfr mRNA; [4])	Egfr expression increased on average (vs vehicule) (Egfr mRNA; gonadectomized Bmp6-/- females, testosterone for a week, liver mRNA) [fold]	Effect on liver Egfr expression (in words) (Egfr mRNA; ovariectomized Bmp6-/- females treated with testosterone for a week)	C-terminal Smad phosphorylation (Smad5) in liver (in words) (C-terminal phospho-Smad5)	C-terminal Smad2 phosphorylation in liver (in words) (C-terminal phospho-Smad2)
COc1cc2ncnc(Nc3ccc(F)c(Cl)c3)c2cc1OCCCN1CCOCC1 [gefitinib, 4-quinazolinamine, N-(3-chloro-4-fluorophenyl)-7-methoxy-6-[3-(4-morpholinyl)propoxy]-(9CI)]	2.76	4.02	6.8	significant induction of Hamp mRNA levels	–	–	–	–	–	–	–	–	–	–	–	–	–
CCC(=O)O[C@H]1CC[C@H]2[C@@H]3CCC4=CC(=O)CC[C@]4(C)[C@H]3CC[C@]12C [testosterone, testosterone propionate]	–	–	–	–	downregulation of hepcidin expression to levels similar to those observed in non irradiated control mice	−3.95	1.27	15.4	16.3	−4.03	0.81	1.72	0.88	3.3	induced	reduced	increased
